Measured values: patent US20230000808A1, “COMPOSITIONS AND METHODS EXCLUDING OR WITH REDUCED GLUTAMINE FOR THE TREATMENT OF HEMOGLOBINOPATHIES AND THALASSEMIAS” (AXCELLA HEALTH INC., priority 2019, published 2023)

Tests used:
[1] = test system: ICAM-1; assay: ICAM-1 cell integrated intensity in HLMVEC treated with TNF-α (immunofluorescence); assay type: cell-based, human; conditions: for TNFα induced ICAM-1 expression levels in HLMVEC: 0.5 ng/mL TNF-α, amino acids at 20× HMDB, 24 hours
Procedure, shortened: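 Primary human lung microvascular endothelial cells, 24 h in medium with SCD-like amino acid profile plus 0.5 ng/mL TNF-α, with or without amino acids at 20× mean plasma level. Fixed, immunostained for ICAM-1 and VCAM-1; integrated intensity per cell by high-content imaging.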

[2] = test system: RBCs of healthy whole blood; assay: RBC deformability (Elongation Index, LORRCA ektacytometry), ex vivo TBHP oxidation of healthy whole blood; assay type: cell-based, human; conditions: for EI over vehicle control, both ½ EImax and EImax: healthy donor 2, single amino acid treatments
Excerpt: Whole blood from healthy African American and/or Hispanic donors was obtained from Research Blood Components, LLC based on the following donor selection criteria: Adult age (between 18 and 50 years), normal BMI (<30), and absence of other confounding clinical conditions. Whole blood from SCD donors were obtained from BioIVT based on the following donor selection criteria: Patients with genotypes HbSS, HbSC, HbS/β^0 and at least 1-2 months gap since last blood transfusion. Whole blood was shipped on ice on the same day as blood draw. Upon receipt, the blood sample was aliquoted and stored in the refrigerator until used for studies.
RBC deformability measurements were conducted with the Laser Optical Rotational Red Cell Analyzer (LORRCA) from RR Mechatronics in a temperature-controlled environment (37° C.). Briefly, an even layer of RBCs suspended in polyvinylpyrrolidone (PVP) is subjected to shear stress gradient (0.3 to 30 Pa) through two concentric cylinders and the resulting changes in RBC shape or deformability are measured by a laser beam diffraction pattern. The captured images of RBC shape in response to increasing shear stress are then analyzed by the LORRCA program to calculate Elongation Index (EI).
Healthy RBCs have higher deformability ≥0.5 EI and SCD RBCs have lower deformability or EI values as studied by LORRCA ektacytometry in the field. […] The induced hemolysis model in this disclosure involves use of tert-butyl hydroperoxide (TBHP) to lower EI of RBCs.
The ex vivo hemolysis study disclosed here involves overnight treatment of whole blood with vehicle as a control and specific amino acids followed by rapid oxidation (5 min) with TBHP. Method for oxidation of whole blood with tert-butyl hydroperoxide has been used in prior literature (Diederich L, et al, Front Physiol. 2018 May 11; 9:332). RBC deformability or shape changes are then measured with LORRCA ektacytometry.
Whole blood aliquots stored in the fridge were brought up to room temperature while gently shaking on a rocker at low speed for an hour to ensure gradual and uniform suspension of red blood cells prior to deformability measurements. Vehicle control used in the study was 1× Dulbecco's […]) and amino acids disclosed herein were added (at either final 10× or 2.5 mM concentration as indicated) to corresponding vehicle and amino acid treatment conditions. The samples were then incubated overnight at 37° C. The next day, 25 μl of whole blood was taken from each treatment condition and added to 5 mL Elon ISO viscous solution from RR Mechatronics. The sample was inverted 15-20 times to ensure proper mixing of the treated RBCs with the Elon ISO solution followed by loading the sample on LORRCA and capturing RBC deformability or shape measurements over the applied shear gradient. The remaining whole blood treatments were returned to incubator (37° C.) until deformability measurements were completed for all treatments. To the remaining whole blood treatment samples, TBHP solution (5.0-6.0 M in Decane, Sigma) was added at 2.5 mM final concentration from a 100 mM freshly prepared stock and incubated for further 5 min at 37° C. 25 μl of this TBHP-treated sample was immediately removed at the end of the 5 min incubation and added to the Elon ISO solution for RBC deformability measurement after oxidation. Included in the Tables 13-15 are EI measurements at ½ EImax shear stress 1.69 Pa and EImax shear stress 30 Pa from these studies and FIG. 1 captures EI measurements for all shear stress points for the indicated treatment conditions.

Compound | TNFα induced ICAM-1 expression levels in HLMVEC [1] | effectiveness among all treatment groups, EI and fold change relative to vehicle ([2]; healthy donor 2) | EI over vehicle control, both ½ EImax and EImax [2] | ICAM-1 Cell Integrated Intensity Median ([1]; HLMVEC + 0.5 ng/mL TNF-α, 24 h, amino acids 20x HMDB, Nac/Cit/Car 5 mM as bracketed)
NC(=O)CC[C@H](N)C(=O)O [Glutamine, L-glutamine] | increased | least effective | higher than the vehicle | 
CC(=O)N[C@@H](CS)C(=O)O [N-Acetyl Cysteine, N-acetylcysteine] | reduced levels of ICAM-1 expression to a lesser extent |  | higher than the vehicle | −0.222
